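Exposure lasted 48 hours, with cells grown in 96-well plates and compounds tested at five concentrations. The concentration for 50% growth inhibition is given as GI50.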 Activity calls are given as the source filed them. No stated cut-off is given here; in the data, active = GI50 up to about 1.1 µM and inactive = higher.
What was measured:
Assay in all cases: NCI anticancer screen, dose series, 48 h
[1] = tested on: SR
[2] = tested on: MOLT-4
[3] = tested on: HT-29
[4] = tested on: HL-60
[5] = tested on: K562
[6] = tested on: SF-539
[7] = tested on: SN12C
[8] = tested on: RPMI-8226
[9] = tested on: ACHN
[10] = tested on: CCRF-CEM
[11] = tested on: 786-0
[12] = tested on: HCT-15
[13] = tested on: SK-OV-3
[14] = tested on: HCC 2998
[15] = tested on: NCI/ADR-RES
[16] = tested on: MDA-MB-435
[17] = tested on: LOX IMVI
[18] = tested on: A498
[19] = tested on: CAKI-1
[20] = tested on: SF-295

SMILES | GI50 [1] | GI50 [2] | GI50 [3] | GI50 [4] | GI50 [5] | GI50 [6] | GI50 [7] | GI50 [8] | GI50 [9] | GI50 [10] | GI50 [11] | GI50 [12] | GI50 [13] | GI50 [14] | GI50 [15] | GI50 [16] | GI50 [17] | GI50 [18] | GI50 [19] | GI50 [20]
CC1(C)[C@H]2CC[C@](C)(C2)[C@]1(S)Cc1ccccn1 | 18.1 µM (inactive) | 15.3 µM (inactive) | 24.9 µM (inactive) | 11.2 µM (inactive) | 26.3 µM (inactive) | > 100 µM (inactive) | 56.8 µM (inactive) | 21.5 µM (inactive) | 54.2 µM (inactive) | 5 µM (inactive) | 27 µM (inactive) | 41.7 µM | 29.8 µM (inactive) | 18.5 µM (inactive) | 50.5 µM (inactive) | 26.3 µM (inactive) | 17.3 µM (inactive) | > 100 µM (inactive) | 57.1 µM (inactive) | 26.4 µM (inactive)
Cc1ccc(S(=O)(=O)N(CC(O)COc2ccccc2)c2ccc(F)cc2F)cc1 (stereo not given) | 22.5 µM (inactive) | 22.8 µM (inactive) | 14.9 µM (inactive) | 15.7 µM (inactive) | 34.8 µM (inactive) | 16.4 µM (inactive) | 15.3 µM (inactive) | 13.5 µM (inactive) | 16.5 µM (inactive) | 18.9 µM (inactive) | 16.8 µM (inactive) | 17.1 µM | 18.7 µM (inactive) | 14.1 µM (inactive) | 15.9 µM (inactive) | 16.1 µM (inactive) | 14.2 µM (inactive) | 15.3 µM (inactive) | 12.2 µM (inactive) | 17.2 µM (inactive)
CC(=O)Nc1ccc(-c2nc3cc(Cl)ccc3o2)cc1 | > 50 µM (inactive) | > 50 µM (inactive) | > 50 µM (inactive) | 40.9 µM (inactive) | > 50 µM (inactive) | > 50 µM (inactive) | > 50 µM (inactive) | > 50 µM (inactive) | > 50 µM (inactive) | > 50 µM (inactive) | > 50 µM (inactive) | > 50 µM | > 50 µM (inactive) | 40.1 µM (inactive) | > 50 µM (inactive) | > 50 µM (inactive) | > 50 µM (inactive) | > 50 µM (inactive) | > 50 µM (inactive) | > 50 µM (inactive)
O=C(c1c2c(cc3c1CC1(Cc4cc5c(cc4C1)CCCC5)C3)CCCC2)C(Br)Br | 2.69 µM (inactive) | 1.85 µM (inactive) | 20.3 µM (inactive) | 3.18 µM (inactive) | 4.31 µM (inactive) | 20.2 µM (inactive) | 18.6 µM (inactive) | 5.04 µM (inactive) | 13.4 µM (inactive) | 1.6 µM (inactive) | 14.6 µM (inactive) | 16.1 µM | 21.4 µM (inactive) | 21.5 µM (inactive) | 19.4 µM (inactive) | 14 µM (inactive) | 1.79 µM (inactive) | 29.7 µM (inactive) | 11.3 µM (inactive) | 58.6 µM (inactive)

Source: ChEMBL document CHEMBL1201862, “PubChem BioAssay data set” (2004)
